# Measured values: ChEMBL document CHEMBL5705884, “Breaching the DNA damage checkpoint via PF-00477736, a novel small-molecule inhibitor of checkpoint kinase 1” (Mol Cancer Ther, 2008)
# The source made the active and inactive calls. The calls are words filed in the database; no cut-off is given here.
# Key:
# COLO 205 [1] = experiment: Antitumor activity against human COLO 205 cells xenografted in athymic nude mouse model assessed as potentiated tumor growth inhibition at 30 mg/kg, ip administered twice daily in presence of gemcitabine relative to control; format: functional; conditions: read-out: TGI
# [2] = target: Cyclin-dependent kinase 1 (Homo sapiens, UniProt P06493); experiment: Binding affinity to CDK1 (unknown origin) assessed as inhibition constant
# Sequence of Cyclin-dependent kinase 1 (P06493 whole entry): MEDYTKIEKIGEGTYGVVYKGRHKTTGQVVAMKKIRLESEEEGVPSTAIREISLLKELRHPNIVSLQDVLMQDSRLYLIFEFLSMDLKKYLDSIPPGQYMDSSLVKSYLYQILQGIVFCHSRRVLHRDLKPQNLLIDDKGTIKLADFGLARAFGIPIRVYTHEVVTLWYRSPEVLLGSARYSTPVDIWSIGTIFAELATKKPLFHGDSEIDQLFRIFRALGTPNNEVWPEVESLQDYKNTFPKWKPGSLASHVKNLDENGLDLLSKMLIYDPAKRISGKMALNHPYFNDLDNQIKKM
# HT-29 [3] = experiment: Potentiation of camptothecin induced cytotoxicity in human HT-29 cells assessed as cell survival at 360 nM measured after 4 to 48 hrs by coulter counter method relative to camptothecin alone; format: functional; conditions: time 4-48 hrs, read-out: Activity
# HT-29 [4] = experiment: Potentiation factor, ratio of IC50 for human HT-29 cells to IC50 for human HT-29 cells in presence of mytomicin-C; format: functional
# COLO 205 [5] = experiment: Antitumor activity against human COLO 205 cells xenografted in athymic nude mouse model assessed as tumor growth delay by measuring test to control tumor ratio at 7.5 mg/kg, ip administered twice daily in presence of gemcitabine (Gemcitabine alone = 3%); format: functional
# COLO 205 [6] = experiment: Antitumor activity against human COLO 205 cells xenografted in athymic nude mouse model assessed as tumor growth inhibition at 7.5 mg/kg, ip administered once daily in presence of gemcitabine (Gemcitabine alone = 40%); format: functional; conditions: read-out: TGI
# COLO 205 [7] = experiment: Antitumor activity against human COLO 205 cells xenografted in athymic nude mouse model assessed as tumor growth delay by measuring test to control tumor ratio at 24 mg/kg, ip administered twice daily in presence of gemcitabine (Gemcitabine alone= 8%); format: functional
# HT-29 [8] = experiment: Potentiation factor, ratio of IC50 for human HT-29 cells to IC50 for human HT-29 cells in presence of gemcitabine; format: functional
# COLO 205 [9] = experiment: Antitumor activity against human COLO 205 cells xenografted in athymic nude mouse model assessed as tumor growth delay by measuring test to control tumor ratio at 4 mg/kg, ip administered once daily in presence of gemcitabine (Gemcitabine alone = 8 %); format: functional
# HT-29 [10] = experiment: Potentiation factor, ratio of IC50 for human HT-29 cells to IC50 for human HT-29 cells in presence of SN-38; format: functional
# MDA-MB-231 [11] = experiment: Potentiation factor, ratio of IC50 for human MDA-MB-231 cells to IC50 for human MDA-MB-231 cells in presence of carboplatin; format: functional
# COLO 205 [12] = experiment: Antitumor activity against human COLO 205 cells xenografted in athymic nude mouse model assessed as potentiated tumor growth inhibition at 15 mg/kg, ip administered twice daily in presence of gemcitabine relative to control; format: functional; conditions: read-out: TGI
# [13] = AUC (0 to infinity) in nu/nu mouse at 40 mg/kg, ip by LCMS analysis; format: ADME, organism-based; conditions: in vivo
# COLO 205 [14] = experiment: Antitumor activity against human COLO 205 cells xenografted in athymic nude mouse model assessed as gross log cell kill at 7.5 mg/kg, ip administered twice daily in presence of gemcitabine (Gemcitabine alone = 0.27%); format: functional
# HT-29 [15] = experiment: Upregulation of cyclin B level in gemcitabine induced human HT-29 cells at 360 nM measured after 10 hrs by immunoblot analysis; format: functional, cell-based
# HT-29 [16] = experiment: Potentiation factor, ratio of IC50 for human HT-29 cells to IC50 for human HT-29 cells in presence of doxorubicin; format: functional
# COLO 205 [17] = experiment: Antitumor activity against human COLO 205 cells xenografted in athymic nude mouse model assessed as tumor growth delay by measuring test to control tumor ratio at 40 mg/kg, ip administered twice daily in presence of gemcitabine (Gemcitabine alone= 8%); format: functional
# MDA-MB-231 [18] = experiment: Potentiation factor, ratio of IC50 for human MDA-MB-231 cells to IC50 for human MDA-MB-231 cells in presence of mytomicin-C; format: functional
# HT-29 [19] = experiment: Potentiation of gemcitabine induced cytotoxicity in human HT-29 cells assessed as cell survival at 180 nM measured after 4 to 48 hrs by coulter counter method relative to gemcitabine alone; format: functional; conditions: time 4-48 hrs, read-out: Activity
# HT-29 [20] = experiment: Potentiation of camptothecin induced cytotoxicity in human HT-29 cells assessed as cell survival at 180 nM measured after 4 to 48 hrs by coulter counter method relative to camptothecin alone; format: functional; conditions: time 4-48 hrs, read-out: Activity
# COLO 205 [21] = experiment: Antitumor activity against human COLO 205 cells xenografted in athymic nude mouse model assessed as tumor growth inhibition at 15 mg/kg, ip administered once daily in presence of gemcitabine (Gemcitabine alone = 40%); format: functional; conditions: read-out: TGI
# COLO 205 [22] = experiment: Antitumor activity against human COLO 205 cells xenografted in athymic nude mouse model assessed as potentiated tumor growth inhibition at 7.5 mg/kg, ip administered twice daily in presence of gemcitabine relative to control; format: functional; conditions: read-out: TGI
# [23] = AUC (0 to infinity) in nu/nu mouse at 4 mg/kg, ip by LCMS analysis; format: ADME, organism-based; conditions: in vivo
# MDA-MB-231 [24] = experiment: Potentiation factor, ratio of IC50 for human MDA-MB-231 cells to IC50 for human MDA-MB-231 cells in presence of gemcitabine; format: functional
# COLO 205 [25] = experiment: Antitumor activity against human COLO 205 cells xenografted in athymic nude mouse model assessed as potentiated tumor growth inhibition at 4 mg/kg, ip administered twice daily in presence of gemcitabine relative to control; format: functional; conditions: read-out: TGI
# COLO 205 [26] = experiment: Antitumor activity against human COLO 205 cells xenografted in athymic nude mouse model assessed as tumor growth delay by measuring test to control tumor ratio at 7.5 mg/kg, ip administered once daily in presence of gemcitabine (Gemcitabine alone = 3%); format: functional
smiles,measurement,setting,value
Cn1cc(-c2[nH]c3cc(NC(=O)[C@H](N)C4CCCCC4)cc4c3c2C=NNC4=O)cn1,inhibition in vivo at 30 mg/kg,COLO 205 [1],64%
same,Ki,[2],9.9 nM
same,viability at 0.36 µM,HT-29 [3],84%
same,PF50,HT-29 [4],3.7
same,T/C,COLO 205 [5],13.25
same,inhibition in vivo at 7.5 mg/kg,COLO 205 [6],54%
same,T/C,COLO 205 [7],12
same,PF50,HT-29 [8],9
same,T/C,COLO 205 [9],8
same,PF50,HT-29 [10],3.7
same,PF50,MDA-MB-231 [11],2.55
same,inhibition in vivo at 15 mg/kg,COLO 205 [12],44%
same,AUC(0-inf),[13],25800 ng·h/mL
same,LCK,COLO 205 [14],1.21
same,Activity,HT-29 [15],Active
same,PF50,HT-29 [16],2.2
same,T/C,COLO 205 [17],20
same,PF50,MDA-MB-231 [18],1.2
same,viability at 0.18 µM,HT-29 [19],75%
same,viability at 0.18 µM,HT-29 [20],90%
same,inhibition in vivo at 15 mg/kg,COLO 205 [21],67%
same,inhibition in vivo at 7.5 mg/kg,COLO 205 [22],50%
same,AUC(0-inf),[23],490 ng·h/mL
same,PF50,MDA-MB-231 [24],3.6
same,inhibition in vivo at 4 mg/kg,COLO 205 [25],12%
same,T/C,COLO 205 [26],5.75
